Assay results from article PMC7327383, “The affinity and selectivity of α‐adrenoceptor antagonists, antidepressants, and antipsychotics for the human α1A, α1B, and α1D‐adrenoceptors” (Pharmacology Research & Perspectives, 2020).
Read-outs that look alike come from different tables or passages of the source. Blank lines part the entries; values can stand above or below the compound they belong to.

Tests used:
human α1B-adrenoceptor = molecular target: T1, human α1B-adrenoceptor (Homo sapiens, UniProt P35368); assay: [3H]prazosin whole-cell competition binding, CHO-α1B cells; conditions: for Kd: read-out: Log KD α1B (converted); for Selectivity ratio α1B vs α1D: ratio of KD values, higher α1B affinity, 1.0 under vs = none
T1 construct: CHO cells stably expressing either the full‐length human α1A, α1B, or α1D‐adrenoceptor
T1 sequence (P35368 1-520): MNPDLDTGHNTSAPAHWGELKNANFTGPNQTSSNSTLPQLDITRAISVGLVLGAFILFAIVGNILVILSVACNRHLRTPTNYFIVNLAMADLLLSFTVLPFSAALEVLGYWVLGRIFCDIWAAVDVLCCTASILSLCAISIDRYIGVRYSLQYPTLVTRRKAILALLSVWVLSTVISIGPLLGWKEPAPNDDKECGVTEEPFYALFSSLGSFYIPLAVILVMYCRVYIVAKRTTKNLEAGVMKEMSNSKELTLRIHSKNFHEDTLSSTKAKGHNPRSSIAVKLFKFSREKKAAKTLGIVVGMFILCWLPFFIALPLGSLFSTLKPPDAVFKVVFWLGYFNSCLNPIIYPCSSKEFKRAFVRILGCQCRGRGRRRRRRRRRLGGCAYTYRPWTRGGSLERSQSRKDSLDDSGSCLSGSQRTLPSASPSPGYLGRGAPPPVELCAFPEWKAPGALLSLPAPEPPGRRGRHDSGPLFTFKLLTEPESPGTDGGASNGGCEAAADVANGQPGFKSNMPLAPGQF

[1] = molecular target: T2, full-length human α1D-adrenoceptor (Homo sapiens, UniProt P25100); assay: [3H]prazosin whole-cell competition binding, CHO-α1D cells
T2 sequence (P25100 1-572): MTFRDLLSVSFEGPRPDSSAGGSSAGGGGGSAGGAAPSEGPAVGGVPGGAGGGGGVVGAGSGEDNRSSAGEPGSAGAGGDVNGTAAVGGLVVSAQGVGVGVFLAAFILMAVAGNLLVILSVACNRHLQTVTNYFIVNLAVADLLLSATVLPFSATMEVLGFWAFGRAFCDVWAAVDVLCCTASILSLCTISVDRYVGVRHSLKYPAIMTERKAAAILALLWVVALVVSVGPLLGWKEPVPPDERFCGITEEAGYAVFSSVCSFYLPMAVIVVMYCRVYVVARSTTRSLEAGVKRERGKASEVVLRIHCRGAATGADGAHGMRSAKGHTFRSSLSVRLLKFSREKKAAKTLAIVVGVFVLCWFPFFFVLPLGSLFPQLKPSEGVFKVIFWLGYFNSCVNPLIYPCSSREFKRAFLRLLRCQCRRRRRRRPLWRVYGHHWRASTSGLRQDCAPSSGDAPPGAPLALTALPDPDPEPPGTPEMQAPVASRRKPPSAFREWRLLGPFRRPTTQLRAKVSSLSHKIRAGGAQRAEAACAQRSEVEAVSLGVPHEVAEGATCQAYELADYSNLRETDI

human α1A-adrenoceptor = molecular target: T3, human α1A-adrenoceptor (Homo sapiens, UniProt P35348); assay: [3H]prazosin whole-cell competition binding, CHO-α1A cells; conditions: for selectivity α1A vs 1D / selectivity α1A vs α1B: ratio, 1 = no selectivity for a subtype over another
T3 construct: CHO cells stably expressing either the full‐length human α1A, α1B, or α1D‐adrenoceptor
T3 sequence (P35348 1-466): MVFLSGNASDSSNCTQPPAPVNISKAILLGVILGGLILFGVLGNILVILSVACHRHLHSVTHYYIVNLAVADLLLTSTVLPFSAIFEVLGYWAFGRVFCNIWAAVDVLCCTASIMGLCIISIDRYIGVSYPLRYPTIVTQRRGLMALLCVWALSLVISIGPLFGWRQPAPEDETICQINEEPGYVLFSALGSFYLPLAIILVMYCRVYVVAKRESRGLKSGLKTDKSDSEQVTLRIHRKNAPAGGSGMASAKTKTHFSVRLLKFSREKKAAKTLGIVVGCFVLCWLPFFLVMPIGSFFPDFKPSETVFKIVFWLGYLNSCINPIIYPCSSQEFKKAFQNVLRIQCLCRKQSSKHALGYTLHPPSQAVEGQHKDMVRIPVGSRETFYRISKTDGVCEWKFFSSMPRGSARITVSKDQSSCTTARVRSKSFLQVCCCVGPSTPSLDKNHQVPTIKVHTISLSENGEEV

[2] = single-component inhibition curve, given as log KD (negative), mean ± SE mean
[3] = percentage of inhibition through first component, control
[4] = two-component inhibition curve, proportion of site 1
[5] = single-component inhibition curve, given as log KD (negative), mean ± SE mean, read-out: Log KD α1A (converted)
[6] = Log KD α1D, single-component inhibition curve, given as log KD (negative), mean ± SE mean
[7] = ratio of KD values, higher α1A affinity, 1.0 under vs = none
[8] = ratio of KD values, printed under α1A = higher α1A affinity, 1.0 under vs = none
[9] = ratio, 1 = no selectivity for a subtype over another
[10] = ratio of KD values, higher α1D affinity (site 1 KD)
[11] = log KD from 3H-prazosin whole cell binding, CHO cells, mean ± s.e.mean
[12] = app: top concentration inhibited most but not all specific binding, curve extrapolated

Compound: Cc1nc2n(c(=O)c1CCN1CCC(c3noc4cc(F)ccc34)CC1)CCCC2O (centres unmarked) [Paliperidone]
selectivity α1B vs α1D (human α1B-adrenoceptor): 1.3 | Kd (human α1B-adrenoceptor; [2]): 43.7 nM | Log KD α1D site 2 [1]: −5.57 ± 0.21 | Selectivity ratio α1B vs α1D [1]: 1.3 fold | Kd ([1]; Log KD α1D site 1, high-affinity component of two-component curve, control, used for selectivity): 33.9 nM | % site 1 α1D [1, 3]: 57.6 ± 4.9% site 1 | % site 1 α1D [1, 4]: -7.47 ± 0.10 -5.57 ± 0.21 57.6 ± 4.9% site 1 | Selectivity ratio α1A vs α1B (human α1A-adrenoceptor): 10 fold | Selectivity ratio α1A vs α1D (human α1A-adrenoceptor): 7.8 fold | Kd (human α1A-adrenoceptor; [5]): 4.37 nM

Compound: CC(CN1c2ccccc2Sc2ccccc21)N(C)C (centres unmarked) [Promethazine]
Selectivity ratio α1B vs α1D (human α1B-adrenoceptor): 2.0 fold | Kd (human α1B-adrenoceptor; [2]): 871 nM | Kd [1, 6]: 1780 nM | Selectivity ratio α1A vs α1D (human α1A-adrenoceptor; [7]): 18 fold | Selectivity ratio α1A vs α1B (human α1A-adrenoceptor; [8]): 8.7 fold | Kd (human α1A-adrenoceptor; [5]): 100 nM

Compound: CNCCCC1c2ccccc2C=Cc2ccccc21 [Protriptyline]
Selectivity ratio α1B vs α1D (human α1B-adrenoceptor): 1.3 fold | Kd (human α1B-adrenoceptor; [2]): 2690 nM | Kd [1, 6]: 3470 nM | Selectivity ratio α1A vs α1D (human α1A-adrenoceptor; [7]): 16 fold | Selectivity ratio α1A vs α1B (human α1A-adrenoceptor; [8]): 13 fold | Kd (human α1A-adrenoceptor; [5]): 214 nM

Compound: CC(C)(Cc1c[nH]c2ccc(Cl)cc12)NCCOc1ccccc1OCC1CC1.Cl [RS17053, N‐[2‐(2‐cyclopropylmethoxyphenoxy)ethyl]‐5‐chloro‐alpha, alpha‐dimethyl‐1H‐indole‐3‐ethanamine hydrochloride]
selectivity α1B vs α1D (human α1B-adrenoceptor; [9]): 1.7 | Kd (human α1B-adrenoceptor; [2]): 245 nM | Kd [1]: 145 nM | Selectivity ratio α1B vs α1D [1, 10]: 1.7 fold | Selectivity ratio α1A vs α1D (human α1A-adrenoceptor; [7]): 31 fold | Selectivity ratio α1A vs α1B (human α1A-adrenoceptor; [8]): 52 fold | Kd (human α1A-adrenoceptor; [5]): 4.68 nM

Compound: CCS(=O)(=O)N1CCC[C@@H]2CN3CCc4cc(OC)ccc4[C@@H]3C[C@@H]21 [RS79948]
selectivity α1B vs α1D (human α1B-adrenoceptor; [9]): 12 | Log KD α1B (human α1B-adrenoceptor; [2]): −4.99 ± 0.05 | Selectivity ratio α1A vs α1D [1, 10]: 2.1 fold | Selectivity ratio α1B vs α1D [1, 10]: 12 fold | Log KD α1D [1, 2]: −6.07 ± 0.11 | Selectivity ratio α1A vs α1B (human α1A-adrenoceptor; [8]): 5.8 fold | selectivity α1A vs 1D (human α1A-adrenoceptor): 2.1 | Log KD α1A (human α1A-adrenoceptor; [2]): −5.75 ± 0.05

Compound: Cc1c[nH]c(=O)n(CCCN2CCN(c3ccccc3OCC(F)(F)F)CC2)c1=O [RS100329]
selectivity α1B vs α1D (human α1B-adrenoceptor; [9]): 9.1 | Log KD α1B (human α1B-adrenoceptor; [2]): −6.67 ± 0.07 | Log KD α1D site 1 ([1]; high-affinity component of two-component curve, control, used for selectivity): −7.63 ± 0.17 | Log KD α1D site 2 ([1]; low-affinity component of two-component curve, control): −5.13 ± 0.15 | % site 1 α1D [1, 3]: 70.5 ± 3.0% site 1 | Selectivity ratio α1B vs α1D [1, 10]: 9.1 fold | % site 1 α1D [1, 4]: -7.63 ± 0.17 -5.13 ± 0.15 70.5 ± 3.0% site 1 | Selectivity ratio α1A vs α1D (human α1A-adrenoceptor; [7]): 93 fold | Selectivity ratio α1A vs α1B (human α1A-adrenoceptor; [8]): 851 fold | Log KD α1A (human α1A-adrenoceptor; [2]): −9.60 ± 0.05 | Kd (human α1A-adrenoceptor; subtype not given, ligands with α1A selectivity (Table 1: α1A), read-out: affinity): < 0.25 nM

Continued, values first:

Selectivity ratio α1B vs α1D (human α1B-adrenoceptor): 1.4 fold | Log KD α1B (human α1B-adrenoceptor; [2]): −5.46 ± 0.06 | Log KD α1D [1, 2]: −5.31 ± 0.13 | Selectivity ratio α1A vs α1D (human α1A-adrenoceptor; [7]): 16 fold | Selectivity ratio α1A vs α1B (human α1A-adrenoceptor; [8]): 11 fold | Log KD α1A (human α1A-adrenoceptor; [2]): −6.51 ± 0.09
Compound: COC1(C2=NCCN2)COc2ccccc2O1 (centres unmarked) [RX821002]

Log KD α1B (human α1B-adrenoceptor; [11]): -5.46 ± 0.06 | selectivity α1B vs α1D (human α1B-adrenoceptor; [9]): 1.4 | Log KD α1D [1, 11]: -5.31 ± 0.13 | Log KD α1A (human α1A-adrenoceptor; [11]): -6.51 ± 0.09 | selectivity α1A vs 1D (human α1A-adrenoceptor): 16 | selectivity α1A vs α1B (human α1A-adrenoceptor): 11
Compound: COC1(C2=NCCN2)COc2ccccc2O1 (centres unmarked) [RX 821002]

Log KD α1B (apparent) (human α1B-adrenoceptor; [12]): −4.92 ± 0.02^app | selectivity α1B vs α1D (human α1B-adrenoceptor; [9]): 5.9 | Log KD α1D (apparent) [1, 12]: −5.69 ± 0.13^app | Selectivity ratio α1B vs α1D [1, 10]: 5.9 fold | Selectivity ratio α1A vs α1D (human α1A-adrenoceptor; [7]): 1.6 fold | Selectivity ratio α1A vs α1B (human α1A-adrenoceptor; [8]): 9.5 fold | Log KD α1A (human α1A-adrenoceptor; [2]): −5.90 ± 0.06
Compound: COc1ccc(NC(=O)N2CCc3c2ccc2ccccc32)cc1N1CCN(C)CC1 [S32212]

selectivities α1B vs α1D (human α1B-adrenoceptor; selectivity ratio, 1 = no selectivity for a given receptor subtype over another): >12 | Log IC50 α1B (human α1B-adrenoceptor; top concentration inhibited some but 50% or less of specific binding, printed as log IC50): Log IC50 > −4 | Selectivity ratio α1B vs α1D [1, 10]: >12 fold | Log KD α1D [1, 2]: −5.09 ± 0.18 | Selectivity ratio α1A vs α1D (human α1A-adrenoceptor; [7]): 1.4 fold | Selectivity ratio α1A vs α1B (human α1A-adrenoceptor; [8]): >17 fold | Log KD α1A (human α1A-adrenoceptor; [2]): −5.24 ± 0.07
Compound: CC(C)OC(=O)c1cc2c(OCC(O)CNC(C)(C)C)cccc2[nH]1 (centres unmarked) [SDZ21009]

Log IC50 α1B (human α1B-adrenoceptor; log IC50 bound): Log IC50>-4 | selectivity α1B vs α1D (human α1B-adrenoceptor; [9]): >12 | Log KD α1D [1, 11]: -5.09 ± 0.18 | Log KD α1A (human α1A-adrenoceptor; [11]): -5.24 ± 0.07 | selectivity α1A vs 1D (human α1A-adrenoceptor): 1.4 | selectivity α1A vs α1B (human α1A-adrenoceptor): >17
Compound: CC(C)OC(=O)c1cc2c(OCC(O)CNC(C)(C)C)cccc2[nH]1 (centres unmarked) [SDZ 21009]
